Data reported in paper PMC6409085, “Three odorant-binding proteins are involved in the behavioral response of Sogatella furcifera to rice plant volatiles” (PeerJ, 2019).
Values joined by “and” are separate entries in the source; they are usually repeats but may differ in a detail not shown here. Equal values may be shown once.

Legend:
Experiment in all cases: biochemical
Type in all cases: binding
[1] = target: SfurOBP1 (Sogatella furcifera, UniProt V5T8N5); details: OBP1, three replicate columns
Protocol: (§1) Thirty-six rice odorants ([He et al., 2014]; [Wang et al., 2017]) and 1-N-phenyl-naphthylamine (1-NPN) were purchased from Sigma-Aldrich (St Louis, MO, USA). These odorants and 1-NPN were dissolved in high-performance liquid chromatography (HPLC) purify grade methanol for 1.0 mM as work solution.
(§2) Fluorescence competitive binding assays were performed on Tecan Spark 10M (Tecan Group Ltd., Männedorf, Switzerland) with the F96 Black ELIAS Plate (Sangon) ([Khuhro et al., 2017]; [Liu et al., 2017]). The solutions were excited at 337 nm and emission spectra were recorded between 390 and 490 nm. First, to test the binding constants of 1-NPN to the SfurOBPs, a 2.0 µM solution of protein in 50 mM Tris-HCl (pH = 7.4) was titrated with 1 mM 1-NPN to achieve virous concentrations. Next, the competitive binding of each odorant was measured using the 1-NPN as fluorescent reporter and odorant as competitor. The concentrations of protein and 1-NPN were both 2.0 µM, the odorant added after protein and 1-NPN added into the well of ELIAS Plate for 2 min. The final concentrations of each competitor were 2, 4, 6, 8, 10, 12, 14, 16, 18 and 20 µM. After 2 min of odorant added, the fluorescence intensity was measured and recorded. The volume of mixed solution in each well was maintained at 250 µL. Each interaction was performed in triplicates.
(§3) GraphPad Prism 7.0 software (GraphPad Software, Inc., La Jolla, CA, USA) was used to calculated and generated the binding constants (K1−NPN) of 1-NPN to SfurOBPs and relative Scatchard plots ([Ban et al., 2003]; [Li et al., 2016]). Dissociation constant (Ki) of each odorant to SfurOBP was computed from the corresponding IC50 value (the half maximal inhibitory concentration), using the following equation: Ki=[IC50]/(1 + [1-NPN]/K1−NPN), where [1-NPN] is the free concentration of 1-NPN and K1−NPN is the dissociation constant of the complex protein/1-NPN.

[2] = target: SfurOBP11 (Sogatella furcifera, UniProt V5T6E3)
Protocol: as §1, §2, §3

[3] = target: SfurOBP3 (Sogatella furcifera, UniProt V5T818); details: OBP3, three replicate columns
Protocol: as §1, §2, §3

[4] = target: SfurOBP2 (Sogatella furcifera, UniProt V5T759)
Protocol: as §1, §2, §3

SfurOBP2, sequence (V5T759 entry or part of it): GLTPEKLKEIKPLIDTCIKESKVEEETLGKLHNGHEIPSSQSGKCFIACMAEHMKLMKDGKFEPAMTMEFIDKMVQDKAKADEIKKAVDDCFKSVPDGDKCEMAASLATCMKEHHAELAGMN
SfurOBP11, sequence (V5T6E3 entry or part of it): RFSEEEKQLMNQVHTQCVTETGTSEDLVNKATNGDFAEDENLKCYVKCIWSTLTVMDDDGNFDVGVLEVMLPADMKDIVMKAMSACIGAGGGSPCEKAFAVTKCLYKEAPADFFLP
SfurOBP1, sequence (V5T8N5 entry or part of it): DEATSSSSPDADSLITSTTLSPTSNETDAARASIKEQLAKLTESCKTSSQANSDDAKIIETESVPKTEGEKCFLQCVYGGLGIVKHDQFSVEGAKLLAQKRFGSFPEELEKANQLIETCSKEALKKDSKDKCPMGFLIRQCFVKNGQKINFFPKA
SfurOBP3, sequence (V5T818 entry or part of it): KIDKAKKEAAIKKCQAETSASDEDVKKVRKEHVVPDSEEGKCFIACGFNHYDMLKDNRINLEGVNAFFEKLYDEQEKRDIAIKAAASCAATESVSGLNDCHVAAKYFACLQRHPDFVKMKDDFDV

## CC(C)COC(=O)CCCCC(=O)OCC(C)C [DA(diisobutyl adipate)]
[1]; ligand concentration 2 (μM)
  Fluorescence competitive binding assay, fluorescence intensity: 6756 and 5373 and 6005
[1]; ligand concentration 4 (μM)
  Fluorescence competitive binding assay, fluorescence intensity: 6244 and 6492 and 6739
[1]; ligand concentration 6 (μM)
  Fluorescence competitive binding assay, fluorescence intensity: 6349 and 5828 and 6089
[1]; ligand concentration 8 (μM)
  Fluorescence competitive binding assay, fluorescence intensity: 6071 and 5880 and 6063
[1]; ligand concentration 10 (μM)
  Fluorescence competitive binding assay, fluorescence intensity: 6080 and 6185 and 6121
[1]; ligand concentration 12 (μM)
  Fluorescence competitive binding assay, fluorescence intensity: 5959 and 5941 and 5922
[1]; ligand concentration 14 (μM)
  Fluorescence competitive binding assay, fluorescence intensity: 6211 and 5589 and 5885
[1]; ligand concentration 16 (μM)
  Fluorescence competitive binding assay, fluorescence intensity: 6060 and 6168 and 5508
[1]; ligand concentration 18 (μM)
  Fluorescence competitive binding assay, fluorescence intensity: 6493 and 6572 and 6293
[1]; ligand concentration 20 (μM)
  Fluorescence competitive binding assay, fluorescence intensity: 7139 and 6435 and 6856
[2]; ligand concentration 2, replicate 1
  Fluorescence intensity, fluorescence competitive binding assay, OBP11: 28052
[2]; ligand concentration 2, replicate 2
  Fluorescence intensity, fluorescence competitive binding assay, OBP11: 24884
[2]; ligand concentration 2, replicate 3
  Fluorescence intensity, fluorescence competitive binding assay, OBP11: 25998
[2]; ligand concentration 4, replicate 1
  Fluorescence intensity, fluorescence competitive binding assay, OBP11: 25234
[2]; ligand concentration 4, replicate 2
  Fluorescence intensity, fluorescence competitive binding assay, OBP11: 27203
[2]; ligand concentration 4, replicate 3
  Fluorescence intensity, fluorescence competitive binding assay, OBP11: 25942
[2]; ligand concentration 6, replicate 1
  Fluorescence intensity, fluorescence competitive binding assay, OBP11: 26005
[2]; ligand concentration 6, replicate 2
  Fluorescence intensity, fluorescence competitive binding assay, OBP11: 24895
[2]; ligand concentration 6, replicate 3
  Fluorescence intensity, fluorescence competitive binding assay, OBP11: 23079
[2]; ligand concentration 8, replicate 1
  Fluorescence intensity, fluorescence competitive binding assay, OBP11: 23239
[2]; ligand concentration 8, replicate 2
  Fluorescence intensity, fluorescence competitive binding assay, OBP11: 23328
[2]; ligand concentration 8, replicate 3
  Fluorescence intensity, fluorescence competitive binding assay, OBP11: 24337
[2]; ligand concentration 10, replicate 1
  Fluorescence intensity, fluorescence competitive binding assay, OBP11: 23466
[2]; ligand concentration 10, replicate 2
  Fluorescence intensity, fluorescence competitive binding assay, OBP11: 24012
[2]; ligand concentration 10, replicate 3
  Fluorescence intensity, fluorescence competitive binding assay, OBP11: 22919
[2]; ligand concentration 12, replicate 1
  Fluorescence intensity, fluorescence competitive binding assay, OBP11: 20499
[2]; ligand concentration 12, replicate 2
  Fluorescence intensity, fluorescence competitive binding assay, OBP11: 21796
[2]; ligand concentration 12, replicate 3
  Fluorescence intensity, fluorescence competitive binding assay, OBP11: 19860
[2]; ligand concentration 14, replicate 1
  Fluorescence intensity, fluorescence competitive binding assay, OBP11: 20110
[2]; ligand concentration 14, replicate 2
  Fluorescence intensity, fluorescence competitive binding assay, OBP11: 20124
[2]; ligand concentration 14, replicate 3
  Fluorescence intensity, fluorescence competitive binding assay, OBP11: 20151
[2]; ligand concentration 16, replicate 1
  Fluorescence intensity, fluorescence competitive binding assay, OBP11: 18498
[2]; ligand concentration 16, replicate 2
  Fluorescence intensity, fluorescence competitive binding assay, OBP11: 20828
[2]; ligand concentration 16, replicate 3
  Fluorescence intensity, fluorescence competitive binding assay, OBP11: 20812
[2]; ligand concentration 18, replicate 1
  Fluorescence intensity, fluorescence competitive binding assay, OBP11: 20721
[2]; ligand concentration 18, replicate 2
  Fluorescence intensity, fluorescence competitive binding assay, OBP11: 21669
[2]; ligand concentration 18, replicate 3
  Fluorescence intensity, fluorescence competitive binding assay, OBP11: 21849
[2]; ligand concentration 20, replicate 1
  Fluorescence intensity, fluorescence competitive binding assay, OBP11: 20792
[2]; ligand concentration 20, replicate 2
  Fluorescence intensity, fluorescence competitive binding assay, OBP11: 21117
[2]; ligand concentration 20, replicate 3
  Fluorescence intensity, fluorescence competitive binding assay, OBP11: 20999
[3]; ligand concentration 2
  Fluorescence competitive binding assay, fluorescence intensity: 60413 and 65968 and 63200
[3]; ligand concentration 4
  Fluorescence competitive binding assay, fluorescence intensity: 61250 and 61185 and 61320
[3]; ligand concentration 6
  Fluorescence competitive binding assay, fluorescence intensity: 60246 and 58949 and 59593
[3]; ligand concentration 8
  Fluorescence competitive binding assay, fluorescence intensity: 52502 and 56703 and 49181
[3]; ligand concentration 10
  Fluorescence competitive binding assay, fluorescence intensity: 59611 and 55127 and 57362
[3]; ligand concentration 12
  Fluorescence competitive binding assay, fluorescence intensity: 47975 and 49504 and 49931
[3]; ligand concentration 14
  Fluorescence competitive binding assay, fluorescence intensity: 42590 and 46739 and 44665
[3]; ligand concentration 16
  Fluorescence competitive binding assay, fluorescence intensity: 36927 and 42551 and 39754
[3]; ligand concentration 18
  Fluorescence competitive binding assay, fluorescence intensity: 35693 and 43209 and 41553
[3]; ligand concentration 20
  Fluorescence competitive binding assay, fluorescence intensity: 42100 and 41400 and 42823
[4]; ligand concentration 2 (unit not given), replicate column 1 of 3
  Fluorescence competitive binding assay, OBP2 (raw fluorescence reading): 18255
[4]; ligand concentration 2 (unit not given), replicate column 2 of 3
  Fluorescence competitive binding assay, OBP2 (raw fluorescence reading): 18056
[4]; ligand concentration 2 (unit not given), replicate column 3 of 3
  Fluorescence competitive binding assay, OBP2 (raw fluorescence reading): 17857
[4]; ligand concentration 4 (unit not given), replicate column 1 of 3
  Fluorescence competitive binding assay, OBP2 (raw fluorescence reading): 17231
[4]; ligand concentration 4 (unit not given), replicate column 2 of 3
  Fluorescence competitive binding assay, OBP2 (raw fluorescence reading): 17998
[4]; ligand concentration 4 (unit not given), replicate column 3 of 3
  Fluorescence competitive binding assay, OBP2 (raw fluorescence reading): 18274
[4]; ligand concentration 6 (unit not given), replicate column 1 of 3
  Fluorescence competitive binding assay, OBP2 (raw fluorescence reading): 16096
[4]; ligand concentration 6 (unit not given), replicate column 2 of 3
  Fluorescence competitive binding assay, OBP2 (raw fluorescence reading): 17472
[4]; ligand concentration 6 (unit not given), replicate column 3 of 3
  Fluorescence competitive binding assay, OBP2 (raw fluorescence reading): 18707
[4]; ligand concentration 8 (unit not given), replicate column 1 of 3
  Fluorescence competitive binding assay, OBP2 (raw fluorescence reading): 16149
[4]; ligand concentration 8 (unit not given), replicate column 2 of 3
  Fluorescence competitive binding assay, OBP2 (raw fluorescence reading): 16678
[4]; ligand concentration 8 (unit not given), replicate column 3 of 3
  Fluorescence competitive binding assay, OBP2 (raw fluorescence reading): 16908
[4]; ligand concentration 10 (unit not given), replicate column 1 of 3
  Fluorescence competitive binding assay, OBP2 (raw fluorescence reading): 15320
[4]; ligand concentration 10 (unit not given), replicate column 2 of 3
  Fluorescence competitive binding assay, OBP2 (raw fluorescence reading): 15081
[4]; ligand concentration 10 (unit not given), replicate column 3 of 3
  Fluorescence competitive binding assay, OBP2 (raw fluorescence reading): 16366
[4]; ligand concentration 12 (unit not given), replicate column 1 of 3
  Fluorescence competitive binding assay, OBP2 (raw fluorescence reading): 14706
[4]; ligand concentration 12 (unit not given), replicate column 2 of 3
  Fluorescence competitive binding assay, OBP2 (raw fluorescence reading): 15645
[4]; ligand concentration 12 (unit not given), replicate column 3 of 3
  Fluorescence competitive binding assay, OBP2 (raw fluorescence reading): 15214
[4]; ligand concentration 14 (unit not given), replicate column 1 of 3
  Fluorescence competitive binding assay, OBP2 (raw fluorescence reading): 14108
[4]; ligand concentration 14 (unit not given), replicate column 2 of 3
  Fluorescence competitive binding assay, OBP2 (raw fluorescence reading): 14696
[4]; ligand concentration 14 (unit not given), replicate column 3 of 3
  Fluorescence competitive binding assay, OBP2 (raw fluorescence reading): 15283
[4]; ligand concentration 16 (unit not given), replicate column 1 of 3
  Fluorescence competitive binding assay, OBP2 (raw fluorescence reading): 14285
[4]; ligand concentration 16 (unit not given), replicate column 2 of 3
  Fluorescence competitive binding assay, OBP2 (raw fluorescence reading): 14484
[4]; ligand concentration 16 (unit not given), replicate column 3 of 3
  Fluorescence competitive binding assay, OBP2 (raw fluorescence reading): 14085
[4]; ligand concentration 18 (unit not given), replicate column 1 of 3
  Fluorescence competitive binding assay, OBP2 (raw fluorescence reading): 14063
[4]; ligand concentration 18 (unit not given), replicate column 2 of 3
  Fluorescence competitive binding assay, OBP2 (raw fluorescence reading): 14665
[4]; ligand concentration 18 (unit not given), replicate column 3 of 3
  Fluorescence competitive binding assay, OBP2 (raw fluorescence reading): 14360
[4]; ligand concentration 20 (unit not given), replicate column 1 of 3
  Fluorescence competitive binding assay, OBP2 (raw fluorescence reading): 13793
[4]; ligand concentration 20 (unit not given), replicate column 2 of 3
  Fluorescence competitive binding assay, OBP2 (raw fluorescence reading): 14314
[4]; ligand concentration 20 (unit not given), replicate column 3 of 3
  Fluorescence competitive binding assay, OBP2 (raw fluorescence reading): 13272
